In patent US20260029420A1, “ANTI-CB2 ANTIBODIES AND THEIR USE IN A FLOW CYTOMETRY ASSAY TO MEASURE CELL SURFACE CB2 EXPRESSION” (Hoffmann-La Roche Inc., priority 2022, published 2026):
Where “and” joins values, the source holds several entries; their conditions need not be identical. Identical values can stand only once.

Tests used:
[1] = target: T1, CB2 (Homo sapiens, UniProt P34972); experiment: Phase I clinical trial CB2 target engagement on B-cells in healthy volunteers; type: in vivo; settings: for time of nadir (lowest CB2 surface expression) post-dose: single oral dose
T1 construct: measured in whole blood samples from nine different healthy human volunteers of working-age; endogenous in cells; host or cells: B-cells (and basophils and other leukocytes) in human whole blood
T1 sequence (P34972 whole entry): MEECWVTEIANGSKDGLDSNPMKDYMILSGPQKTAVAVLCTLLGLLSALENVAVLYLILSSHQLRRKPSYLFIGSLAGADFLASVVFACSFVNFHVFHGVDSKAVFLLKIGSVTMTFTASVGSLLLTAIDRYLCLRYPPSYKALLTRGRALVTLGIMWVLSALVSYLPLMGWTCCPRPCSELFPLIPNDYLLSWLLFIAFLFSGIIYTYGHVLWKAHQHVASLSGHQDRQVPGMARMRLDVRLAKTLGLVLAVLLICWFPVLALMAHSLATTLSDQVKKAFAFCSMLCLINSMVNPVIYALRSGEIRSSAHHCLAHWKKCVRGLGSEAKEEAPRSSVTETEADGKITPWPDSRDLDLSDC
Method: FIG. 13: Arithmetic Mean (+SD) Percentage Change-from-Baseline (CFB) of CB2-Receptor Target Engagement on B-cells in Blood versus Time Following Single Oral Dose Administration of 0.75 mg to 300 mg RG7774 in the Fasted State (n=6 on active drug vs 2 on placebo per dose level).
FIG. 14: Arithmetic Mean (+SD) Percentage Change-from-Baseline (CFB) of CB2-Receptor Target Engagement on B-cells in Blood versus Time Following Single Oral Dose Administration of 100 mg RG7774 in fasted and fed state.
FIG. 15: Arithmetic Mean (+SD) Percentage Change-from-Baseline (CFB) of CB2-Receptor Target Engagement on B-cells in Blood versus Time Following Multiple Oral Dose Administration of 20 mg to 300 mg RG7774 once daily for 14 Days.
The clinical utility of the newly developed CB2 flow cytometry assay as a measure for target engagement in a clinical setting was confirmed by its successful implementation in a phase I clinical trial in healthy volunteers. In the clinical setting B/T-cell ratio was not used as it introduced higher variability relative to the baseline normalized B-cell data alone.
In a first step, oral administration of a single ascending dose (SAD) of RG7774 in the range between 0.75 mg and 300 mg in the fasted state was assessed. Following oral administration of RG774, the onset of CB2 internalization was rapid, with the nadir (lowest CB2 surface expression) achieved at 4 hours post-dose for doses below 10 mg RG7774, and at 1 hour post-dose for doses at 10 mg to 30 mg RG7774 (FIG. 13). For the two highest tested doses of 100 mg and 300 mg RG7774, the time to reach the nadir shifted with the area under the effect curve increasing. […] This indicates successful target engagement of RG7774 upon oral dosing. Furthermore, the assay was utilized to inform stopping rules for dose escalation in the SAD part of the first-in-human (FIH) trial.
In a third part of the FIH study, the effects of multiple ascending doses (MAD) of 20 mg to 300 mg RG7774 administered once daily over 14 days on CB2 internalization were investigated (FIG. 15).

[2] = target: T1, CB2; experiment: CB2 internalization flow cytometry assay in whole blood of working-age healthy participants; type: cell-based; settings: for IC50: B-cells
Method: FIG. 7: IC50 determination for CB2 internalization on B-cells in response to RG7774 in whole blood of healthy participants. Human whole blood was incubated with RG7774 for 1 hour at 37° C. followed by incubation with the anti-human CB2 antibody 1/622. The expression of CB2 on the surface of B-cells was analyzed using a lineage marker mix specific for B-cells (CD45^+ CD3^− CD14^− CD19^+) and T-cells (CD45^+ CD3^+ CD14^−). The B/T-cell CB2 MFI ratio was calculated and normalized to baseline. 0 μM was set as 100% baseline receptor expression.
The CB2 is member of the G-protein coupled receptor family which upon ligand (agonist) binding can respond by internalization of the receptor into the endosomal compartment of the cell, thereby removing the respective receptor form the cell surface and initiating downstream signaling effects (Calebiro, D. et al. Best Pract Res Clin Endocrinol Metab 2018:32 (2):83-91). Such changes in cell surface expression of CB2 on B-cells in response to the treatment with the CB2 agonist RG7774 were measured in whole blood samples from nine different healthy human volunteers of working-age. Whole blood samples were treated with eight compound concentrations in duplicates to determine IC50 of RG7774 using a newly developed flow cytometry assay.
Na-Heparin whole blood samples were incubated in a 96-well plate with RG7774 for 1 hour at 37° C. in a humidified incubator with 5% CO2. Samples were harvested from the 96-well plate and 100 μl were transferred to labeled 5 ml Polystyrene Round Bottom Tubes (Becton Dickinson, Cat #352052). The unlabeled anti-CB2 antibody clone 1/622 was diluted to 50μg/ml with cell staining buffer (BioLegend, Cat #420201). 100 μl diluted anti-CB2 antibody was added to each tube and incubated for 30 minutes at 4° C. For the red blood cell lysis 10× BD PharmLyse lysing buffer (Becton Dickinson, Cat #55899) was diluted to 1× with distilled water and prewarmed to approximately 20° C. After the CB2 antibody incubation 2 ml of prewarmed 1× BD PharmLyse lysing buffer was added to each tube, mixed and incubated for 15 minutes at approximately 20° C. After the incubation, the tubes were centrifuged for 5 minutes at 250×g and 4° C. The supernatant was removed completely, cells were washed two times with cold cell staining buffer and supernatant removed completely after the centrifugation. Human FcR Blocking Reagent (Miltenyi Biotech, Cat #130-059-901) was diluted according to the package insert instructions with cold cell staining buffer. To each sample 50 μl was added, mixed and incubated for 10 minutes at 4° C. The secondary antibody Goat F(ab′)2 Anti-Mouse IgG3 PE (Southern Biotech, Cat #1102-09) was diluted 1:25 in cold cell staining buffer. To each sample 50 μl was added, mixed and incubated for 30 minutes at 4° C. in the dark. […]
For determination of cell surface expression of CB2 on B-cells, median fluorescent intensity (MFI) was analyzed by gating around the CD45^+ CD3^− CD14^− CD19^+ B-cells (see gating strategy in FIG. 6A to FIG. 6E) and acquiring a minimum of 2000 events in this gate (FIG. 6F). With the lineage marker mix other cell populations like T-cells (CD45^+ CD3^+ CD14^−), Monocytes (CD45^+ CD3^− CD14^+), Basophils (CD45^+ CD3^− CD14^− CD19^− CD193^+ IgE^+), NK cells (CD45^+ CD3^− CD14^− CD19^− CD193^− IgE^− CD16^+ CD56^+), Eosinophils (CD45^+ CD16^−) and Neutrophils (CD45^+ CD16^+) could be analyzed.

[3] = 20 mg to 300 mg once daily over 14 days

Cn1nnnc1Cn1nnc2c(N3CC[C@H](O)C3)nc(C(C)(C)C)nc21 [RG7774, (S)-1-[5-tert-Butyl-3-(1-methyl-1H-tetrazol-5-ylmethyl)-3H-[1,2,3]triazolo [4,5-d]pyrimidin-7-yl]-pyrrolidin-3-ol]
desensitization of CB2 internalization [1, 3]: no desensitization was observed | steady-state of PD effect [1, 3]: steady-state was reached during the observation period | impact of food consumption on the pharmacodynamic (PD) effects ([1]; 100 mg single dose, fasted (n=8) vs fed (n=8)): no relevant impact | time to reversal of reduction of CB2 surface receptor expression upon stopping the drug ([1]; after 14 days once daily, not yet fully reversed for the two highest doses): ~1 week | extent of CB2 internalization (CB2 target engagement) ([1]; single ascending dose 0.75 mg to 300 mg, fasted): increased dose-dependently | time of nadir (lowest CB2 surface expression) post-dose ([1]; fasted, doses at 10 mg to 30 mg): 1 h | time of nadir (lowest CB2 surface expression) post-dose ([1]; fasted, doses below 10 mg): 4 h | reduction of the CB2 cell surface expression ([2]; Basophils (data not shown)): can also be detected | Fold change vs HPs of mean IC50 (CB2 on B-cells) ([2]; Healthy Participants (working-age), reference group): 1 | IC50 ([2]; IC50, individual working-age healthy donors, whole blood 1 hour 37° C., B/T-cell CB2 MFI ratio): 125 nM and 81.6 nM and 64.7 nM and 86.7 nM and 64.3 nM and 144 nM | IC50 ([2]; Individual IC50 values, range over donors, healthy human participants): 64.3 to 144 nM | reduction of the CB2 cell surface expression ([2]; T-cells, Monocytes, NK-cells, Eosinophils and Neutrophils (data not shown)): has not been observed
